Experimental data published in US9896445B2, “Heterocyclic inhibitors of ERK1 and ERK2 and their use in the treatment of cancer” (Asana Biosciences, LLC, priority 2015, dated 2018).

Experiments:
ERK2 = target: T1, ERK2 (Homo sapiens, UniProt P28482); test: ERK2 HTRF (biochemical) assay; conditions: HTRF
T1 construct: purchased Jubilant Biosys
How it was run: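 Readout was time-resolved FRET between europium anti-phospho-MBP and streptavidin-APC after a 60-min room-temperature kinase step. That step used ERK2 (25 nM in enzyme mix), biotinylated MBP peptide (1 uM) and ATP (24 uM) from the substrate mix, in pH 7.5 Tris buffer.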

ERK1 = target: T2, ERK1 (Homo sapiens, UniProt P27361); test: ERK1 HTRF (biochemical) assay; conditions: HTRF
T2 construct: purchased Jubilant Biosys
Method: ERK1 and ERK2 HTRF (Biochemical) Assays
These assays employed a homogeneous time resolved fluorescence (HTRF) technique. […] The plate was incubated at room temperature for 60 min with shaking. […] The IC50 values (half maximal inhibitory concentration values) were subsequently determined using a sigmoidal dose-response curve (variable slope) in GraphPad Prism® 5 software.

T1 sequence (P28482 whole entry): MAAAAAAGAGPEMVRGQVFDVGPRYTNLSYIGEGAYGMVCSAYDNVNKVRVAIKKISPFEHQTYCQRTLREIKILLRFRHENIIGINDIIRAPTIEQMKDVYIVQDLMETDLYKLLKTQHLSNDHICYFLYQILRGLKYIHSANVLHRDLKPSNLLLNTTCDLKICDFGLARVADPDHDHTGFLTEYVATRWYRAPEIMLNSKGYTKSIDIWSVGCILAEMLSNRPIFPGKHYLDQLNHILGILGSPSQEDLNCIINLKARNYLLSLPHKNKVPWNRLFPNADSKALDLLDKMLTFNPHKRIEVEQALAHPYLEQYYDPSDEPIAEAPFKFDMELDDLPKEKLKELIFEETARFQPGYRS
T2 sequence (P27361 whole entry): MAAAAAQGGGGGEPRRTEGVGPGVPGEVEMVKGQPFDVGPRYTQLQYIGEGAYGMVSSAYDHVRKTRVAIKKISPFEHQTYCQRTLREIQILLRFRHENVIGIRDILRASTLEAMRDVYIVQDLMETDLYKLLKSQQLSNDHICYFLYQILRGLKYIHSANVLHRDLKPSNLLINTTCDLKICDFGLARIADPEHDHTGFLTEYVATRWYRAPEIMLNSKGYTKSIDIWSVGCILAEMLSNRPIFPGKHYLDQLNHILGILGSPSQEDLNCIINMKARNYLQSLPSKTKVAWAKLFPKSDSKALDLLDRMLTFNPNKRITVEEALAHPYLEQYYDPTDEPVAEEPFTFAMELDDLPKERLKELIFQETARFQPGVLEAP

Row | SMILES | IC50 (ERK2) | IC50 (ERK1)
1 | O=C(NC(CO)c1cccc(Cl)c1)c1ccn(-c2ccnc(Nc3ccc(F)cc3Cl)n2)c1 (stereo not shown) [Compound 111, 1-(2-((2-chloro-4-fluorophenyl)amino)pyrimidin-4-yl)-N-(1-(3-chlorophenyl)-2-hydroxyethyl)-1H-pyrrole-3-carboxamide] | ≤ 0.05 µM | 0.05 to 0.1 µM
2 | O=C(N[C@H](CO)c1cccc(Cl)c1)c1ccn(-c2ccnc(Nc3ccc(F)cc3Cl)n2)c1 [Compound 112, (S)-1-(2-((2-chloro-4-fluorophenyl)-amino)pyrimidin-4-yl)-N-(1-(3-chlorophenyl)-2-hydroxyethyl)-1H-pyrrole-3-carboxamide] | ≤ 0.05 µM | < 0.05 µM
3 | Cc1cnc(Nc2ccc(F)cc2)nc1-n1ccc(C(=O)NC(CO)c2cccc(Cl)c2)c1 (stereo not shown) [Compound 113, N-(1-(3-chloro-phenyl)-2-hydroxy-ethyl)-1-(2-((4-fluorophenyl)amino)-5-methyl-pyrimidin-4-yl)-1H-pyrrole-3-carboxamide] | ≤ 0.05 µM | 0.05 to 0.1 µM
4 | Cc1cnc(Nc2ccc(F)cc2)nc1-n1ccc(C(=O)NC(CO)c2ccccc2)c1 (stereo not shown) [Compound 114, 1-(2-((4-fluoro-phenyl)amino)-5-methylpyrimidin-4-yl)-N-(2-hydroxy-1-phenylethyl)-1H-pyrrole-3-carboxamide] | ≤ 0.05 µM | < 0.05 µM
5 | Cc1cnc(NC2CC2)nc1-n1ccc(C(=O)NC(CO)c2cccc(Cl)c2)c1 (stereo not shown) [Compound 115, N-(1-(3-chloro-phenyl)-2-hydroxy-ethyl)-1-(2-(cyclopropylamino)-5-methylpyrimidin-4-yl)-1H-pyrrole-3-carboxamide] | ≤ 0.05 µM | < 0.05 µM
6 | O=C(N[C@H](CO)c1cccc(Cl)c1)c1cn(-c2ccnc(NC3CC3)c2)cn1 [Compound 116, (S)-N-(1-(3-chlorophenyl)-2-hydroxyethyl)-1-(2-(cyclopropylamino)pyridin-4-yl)-1H-imidazole-4-carboxamide] | ≤ 0.05 µM | < 0.05 µM
7 | Cc1cnc(NC(C)c2ccccc2)nc1-n1ccc(C(=O)NC(CO)c2ccccc2)c1 (stereo not shown) [Compound 117, N-(2-hydroxy-1-phenylethyl)-1-(5-methyl-2-((1-phenylethyl)amino)pyrimidin-4-yl)-1H-pyrrole-3-carboxamide] | 0.05 to 0.1 µM | 0.1 to 0.5 µM
8 | Cc1cnc(Nc2ccc(F)cc2)nc1-n1cnc(C(=O)NC(CO)c2ccccc2)c1 (stereo not shown) [Compound 118, 1-(2-((4-fluoro-phenyl)amino)-5-methylpyrimidin-4-yl)-N-(2-hydroxy-1-phenylethyl)-1H-imidazole-4-carboxamide] | ≤ 0.05 µM | 0.05 to 0.1 µM
9 | COc1cc(Nc2ncc(C)c(-n3ccc(C(=O)NC(CO)c4ccccc4)c3)n2)cc(OC)c1OC (stereo not shown) [Compound 121, N-(2-hydroxy-1-phenylethyl)-1-(5-methyl-2-((3,4,5-trimethoxyphenyl)amino)pyrimidin-4-yl)-1H-pyrrole-3-carboxamide] | ≤ 0.05 µM | < 0.05 µM
10 | Cc1cnc(NC2CCOC2)nc1-n1ccc(C(=O)NC(CO)c2cccc(Cl)c2)c1 (stereo not shown) [Compound 123, N-(1-(3-chlorophenyl)-2-hydroxyethyl)-1-(5-methyl-2-((tetrahydrofuran-3-yl)amino)pyrimidin-4-yl)-1H-pyrrole-3-carboxamide] | ≤ 0.05 µM | < 0.05 µM
11 | O=C(NC(CO)c1cccc(Cl)c1)c1ccn(-c2cc(Nc3ccccc3)ncc2Cl)c1 (stereo not shown) [Compound 124, 1-(5-chloro-2-(phenylamino)pyridin-4-yl)-N-(1-(3-chlorophenyl)-2-hydroxyethyl)-1H-pyrrole-3-carboxamide] | ≤ 0.05 µM | < 0.05 µM
12 | Cc1cnc(Nc2ccc(F)cc2)nc1-n1ccc(C(=O)N[C@H](CO)c2ccc(F)c(Cl)c2)c1 [Compound 125, (S)-N-(1-(3-chloro-4-fluorophenyl)-2-hydroxyethyl)-1-(2-((4-fluorophenyl)-amino)-5-methyl-pyrimidin-4-yl)-1H-pyrrole-3-carboxamide] | ≤ 0.05 µM | < 0.05 µM
13 | COc1cc(Nc2ncc(C)c(-n3ccc(C(=O)N[C@H](CO)c4ccc(F)c(Cl)c4)c3)n2)cc(OC)c1OC [Compound 126, (S)-N-(1-(3-chloro-4-fluorophenyl)-2-hydroxyethyl)-1-(5-methyl-2-((3,4,5-trimethoxyphenyl)amino)pyrimidin-4-yl)-1H-pyrrole-3-carboxamide] | ≤ 0.05 µM | < 0.05 µM
14 | CCC(COC)Nc1ncc(C)c(-n2ccc(C(=O)NC(CO)c3cccc(Cl)c3)c2)n1 (stereo not shown) [Compound 127, N-(1-(3-chloro-phenyl)-2-hydroxy-ethyl)-1-(2-((1-methoxybutan-2-yl)amino)-5-methylpyrimidin-4-yl)-1H-pyrrole-3-carboxamide] | ≤ 0.05 µM | < 0.05 µM
15 | Cc1cnc(NC2CCOC2)nc1-n1ccc(C(=O)NC(CO)c2ccccc2)c1 (stereo not shown) [Compound 128, N-(2-hydroxy-1-phenylethyl)-1-(5-methyl-2-((tetrahydrofuran-3-yl)amino)pyrimidin-4-yl)-1H-pyrrole-3-carboxamide] | ≤ 0.05 µM | < 0.05 µM
16 | COc1cnc(Nc2ccc(F)cc2Cl)nc1-n1ccc(C(=O)NC(CO)c2ccccc2)c1 (stereo not shown) [Compound 129, 1-(2-((2-chloro-4-fluorophenyl)amino)-5-methoxy-pyrimidin-4-yl)-N-(2-hydroxy-1-phenylethyl)-1H-pyrrole-3-carboxamide] | ≤ 0.05 µM | < 0.05 µM
17 | CCNc1ncc(C)c(-n2ccc(C(=O)NC(CO)c3ccccc3)c2)n1 (stereo not shown) [Compound 130, 1-(2-(ethylamino)-5-methylpyrimidin-4-yl)-N-(2-hydroxy-1-phenylethyl)-1H-pyrrole-3-carboxamide] | 0.1 to 0.5 µM | 0.1 to 0.5 µM
18 | Cc1cnc(Nc2ccc3c(c2)OCCO3)nc1-n1ccc(C(=O)NC(CO)c2ccccc2)c1 (stereo not shown) [Compound 131, 1-(2-((2,3-dihydrobenzo[b] [1,4]dioxin-6-yl)-amino)-5-methyl-pyrimidin-4-yl)-N-(2-hydroxy-1-phenylethyl)-1H-pyrrole-3-carboxamide] | ≤ 0.05 µM | < 0.05 µM
19 | Cc1cnc(Nc2ccc3occc3c2)nc1-n1cnc(C(=O)NC(CO)c2cccc(Cl)c2)c1 (stereo not shown) [Compound 132, 1-(2-(benzofuran-5-ylamino)-5-methylpyrimidin-4-yl)-N-(1-(3-chlorophenyl)-2-hydroxyethyl)-1H-imidazole-4-carboxamide] | ≤ 0.05 µM | < 0.05 µM
20 | CC[C@@H](CO)Nc1ncc(C)c(-n2ccc(C(=O)N[C@H](CO)c3ccc(F)c(Cl)c3)c2)n1 [Compound 133, N-((S)-1-(3-chloro-4-fluorophenyl)-2-hydroxyethyl)-1-(2-(((S)-1-hydroxy-butan-2-yl)amino)-5-methylpyrimidin-4-yl)-1H-pyrrole-3-carboxamide] | ≤ 0.05 µM | < 0.05 µM
21 | CC(=O)NCC(NC(=O)c1ccn(-c2cc(Nc3ccc(F)cc3)ncc2C)c1)c1ccccc1 (stereo not shown) [Compound 135, N-(2-acetamido-1-phenylethyl)-1-(2-((4-fluorophenyl)-amino)-5-methyl-pyridin-4-yl)-1H-pyrrole-3-carboxamide] | ≤ 0.05 µM | < 0.05 µM
22 | Cc1cnc(Nc2ccc3c(c2)OC(F)(F)O3)nc1-n1ccc(C(=O)NC(CN)c2cccc(Cl)c2)c1 (stereo not shown) [Compound 136, N-(2-amino-1-(3-chlorophenyl)ethyl)-1-(2-((2,2-difluorobenzo[d][1,3]dioxol-5-yl)amino)-5-methylpyrimidin-4-yl)-1H-pyrrole-3-carboxamide] | ≤ 0.05 µM | 0.05 to 0.1 µM
23 | Cc1cnc(Nc2ccc3c(c2)CCO3)nc1-n1ccc(C(=O)NC(CO)c2cccc(Cl)c2)c1 (stereo not shown) [Compound 137, N-(1-(3-chloro-phenyl)-2-hydroxyethyl)-1-(2-((2,3-dihydro-benzofuran-5-yl)-mino)-5-methyl-pyrimidin-4-yl)-1H-pyrrole-3-carboxamide] | ≤ 0.05 µM | < 0.05 µM
24 | Cc1cnc(Nc2ccc3c(c2)CCO3)nc1-n1ccc(C(=O)NC(CO)c2ccccc2)c1 (stereo not shown) [Compound 138, 1-(2-((2,3-dihydro-benzofuran-5-yl)amino)-5-methylpyrimidin-4-yl)-N-(2-hydroxy-1-phenylethyl)-1H-pyrrole-3-carboxamide] | ≤ 0.05 µM | < 0.05 µM
25 | Cc1cnc(Nc2ccc3c(c2)OCCO3)nc1-n1ccc(C(=O)NC(CO)c2cccc(Cl)c2)c1 (stereo not shown) [Compound 139, N-(1-(3-chloro-phenyl)-2-hydroxyethyl)-1-(2-((2,3-dihydro-benzo[b][1,4]dioxin-6-yl)amino)-5-methylpyrimidin-4-yl)-1H-pyrrole-3-carboxamide] | ≤ 0.05 µM | < 0.05 µM
26 | Cc1cnc(Nc2ccc3[nH]ncc3c2)nc1-n1ccc(C(=O)NC(CO)c2ccccc2)c1 (stereo not shown) [Compound 140, 1-(2-((1H-indazol-5-yl)amino)-5-methylpyrimidin-4-yl)-N-(2-hydroxy-1-phenylethyl)-1H-pyrrole-3-carboxamide] | ≤ 0.05 µM | < 0.05 µM
27 | Cc1cnc(NC2CCCOC2)nc1-n1ccc(C(=O)NC(CO)c2ccccc2)c1 (stereo not shown) [Compound 141, N-(2-hydroxy-1-phenylethyl)-1-(5-methyl-2-((tetrahydro-2H-pyran-3-yl)amino)-pyrimidin-4-yl)-1H-pyrrole-3-carboxamide] | ≤ 0.05 µM | < 0.05 µM
28 | COc1cc(F)ccc1Nc1ncc(C)c(-n2ccc(C(=O)NC(CO)c3cccc(Cl)c3)c2)n1 (stereo not shown) [Compound 142, N-(1-(3-chloro-phenyl)-2-hydroxy-ethyl)-1-(2-((4-fluoro-2-methoxy-phenyl)amino)-5-methylpyrimidin-4-yl)-1H-pyrrole-3-carboxamide] | ≤ 0.05 µM | < 0.05 µM
29 | COc1c(F)cccc1Nc1ncc(C)c(-n2ccc(C(=O)NC(CO)c3cccc(Cl)c3)c2)n1 (stereo not shown) [Compound 143] | ≤ 0.05 µM | < 0.05 µM
